Assays:
[1] = tested on: S. aureus MTCC 1430; assay: In-gel activity assay (Tricine-SDS-PAGE); format: cell-based, Staphylococcus aureus; details: 16% Tricine-SDS-PAGE, ∼10^6 cells/ml
Description: Purified antimicrobial peptides were analyzed on TLC plates (Silica gel 60 F254, Merck, Germany) and used to determine the purity and antimicrobial activity of the compound by bioautographic assay ([Zheng et al., 2005]). About 50–60 μl of the peptide solution (100 μg/ml concentration) was loaded onto individual TLC silica gel plates in duplicates and were developed using a solvent system containing chloroform: […]: water (65:12:4 v/v). Subsequently, each TLC plate was dried, cut into two vertical parts, and one part of the TLC was used for direct detection of antimicrobial activity by overlaying on NA plate containing indicator strain (S. aureus MTCC 1430, ∼10^6 cells/ml). After allowing for 1 h of diffusion at 4°C, the TLC strip was removed and plates were incubated for 24 h at 37°C. The other part of TLC strip (5–10 μl of the peptide solution spot) was sprayed with ninhydrin and phosphomolybdic acid as a staining reagent to detect the presence of peptides and lipid moieties, respectively. Similarly, peptides were electrophoresed on 16% Tricine-SDS-PAGE and used for in-gel activity assay as described earlier ([Baindara et al., 2016]). S. aureus MTCC 1430 (∼10^6 cells/ml) was used as an indicator strain in assay.

[2] = tested on: C. albicans MTCC 1637; assay: MIC, microtiter plate dilution assay; format: cell-based, Candida albicans; details: 5 × 10^5 CFU/ml, 37°C, OD600 after 48 h, triplicate
Description: (§1) The antimicrobial activity was tested by well diffusion assay as mentioned earlier ([Singh et al., 2014]). Strain A52 was grown for 24 h in 500 ml of nutrient broth (NB, Hi-media, India) using 1000 ml flask and subsequently cells were removed by centrifugation (10,000 rpm for 15 min at 4°C). Supernatant was filtered through 0.22 μm filter (Millipore, United States) to obtain cell-free fermented broth (CFB) that was used for antimicrobial assay (50 μl) against various indicator strains and the activity was measured as diameter of inhibition zone. Test strains used were Staphylococcus aureus (MTCC 1430), Bacillus subtilis (MTCC 121), B. firmus (MTCC 488), B. licheniformis (MTCC 429), B. thuringiensis (MTCC 1953), Escherichia coli (MTCC 1610), Micrococcus luteus (MTCC 106), Steptococcus pyrogens (MTCC 1928), S. anginosus (MTCC 1929), S. oralis (MTCC 2696), S. mutans (MTCC 497), Candida albicans (MTCC 1637), C. albicans (MTCC 183), C. albicans (MTCC 227), C. tropicalis (MTCC 184), C. glabrata (MTCC 3019), C. haemulonii (MTCC 2766), and C. inconsplicue (MTCC 1074). The phytopathogenic fungi employed in this study were Alternaria brassicicola (MTCC 2102), Colletotrichum acutatum (MTCC 1037), and Fusarium moniliforme (MTCC 158). Clinical isolates of Candida were provided by National Culture Collection of Pathogenic Fungi (NCCPF), PGIMER, Chandigarh, India.
(§2) The minimum inhibitory concentration (MIC) of HPLC purified peptides was evaluated by using microtiter plate dilution assay. The peptide concentration was estimated using BCA protein assay (Thermo Fisher Scientific, United States) method as described by manufacturer. Actively growing test strains (5 × 10^5 CFU/ml) were inoculated in a 96-well plate with different concentrations of the peptides and plates were incubated for 24–48 h at 37°C (final volume in each well is 200 μl). OD was measured at 600 nm after 24 and 48 h for bacteria and yeast, respectively, using ELISA microplate reader (Thermo, United States). MIC against phytopathogenic fungi was determined using 96-well microtiter plate assay ([Kaur et al., 2016]). In 96-well microplates, 100 μl of fungal spore suspension (1 × 10^5 spores/ml) prepared in potato dextrose broth (PDB, Hi-media, India) was mixed with100 μl of fresh PDB containing different concentrations of lipopeptide. Control well contained 100 μl of fungal spore suspension and 100 μl of only medium. The microplates were incubated at 25°C and readings were recorded at 600 nm after 48 h. The lowest concentration showing no growth was considered as MIC. Each test was done in triplicate and optical density (OD600) of peptide treated wells were compared with uninoculated wells (blank medium control).

[3] = tested on: C. albicans MTCC 183; assay: MIC, microtiter plate dilution assay; format: cell-based, Candida albicans; details: 5 × 10^5 CFU/ml, 37°C, OD600 after 48 h, triplicate
Description: as §1, §2

[4] = tested on: C. albicans MTCC 227; assay: MIC, microtiter plate dilution assay; format: cell-based, Candida albicans; details: 5 × 10^5 CFU/ml, 37°C, OD600 after 48 h, triplicate
Description: as §1, §2

[5] = tested on: C. albicans 400054 (clinical isolate); assay: MIC, microtiter plate dilution assay; format: cell-based, Candida albicans; details: 5 × 10^5 CFU/ml, 37°C, OD600 after 48 h, triplicate
Description: as §1, §2

[6] = tested on: A. brassicicola MTCC 2102; assay: MIC against phytopathogenic fungi, 96-well microtiter plate assay; format: cell-based, Alternaria brassicicola; details: 1 × 10^5 spores/ml in PDB, 25°C, OD600 after 48 h, triplicate
Description: (§3) The antimicrobial activity was tested by well diffusion assay as mentioned earlier ([Singh et al., 2014]). Strain A52 was grown for 24 h in 500 ml of nutrient broth (NB, Hi-media, India) using 1000 ml flask and subsequently cells were removed by centrifugation (10,000 rpm for 15 min at 4°C). Supernatant was filtered through 0.22 μm filter (Millipore, United States) to obtain cell-free fermented broth (CFB) that was used for antimicrobial assay (50 μl) against various indicator strains and the activity was measured as diameter of inhibition zone. […]
(§4) The minimum inhibitory concentration (MIC) of HPLC purified peptides was evaluated by using microtiter plate dilution assay. […] OD was measured at 600 nm after 24 and 48 h for bacteria and yeast, respectively, using ELISA microplate reader (Thermo, United States). MIC against phytopathogenic fungi was determined using 96-well microtiter plate assay ([Kaur et al., 2016]). […] The microplates were incubated at 25°C and readings were recorded at 600 nm after 48 h. […]

[7] = tested on: B. subtilis MTCC 121; assay: MIC, microtiter plate dilution assay; format: cell-based, Bacillus subtilis; details: 5 × 10^5 CFU/ml, 37°C, OD600 after 24 h, triplicate
Description: as §3, §4

[8] = tested on: S. aureus MTCC 1430; assay: Time kill assay; format: cell-based, Staphylococcus aureus; details: 5X MIC, cells in PBS, CFU plated on nutrient agar
Description: Purified AMPs were used to perform time kill assay against S. aureus MTCC 1430 as mentioned earlier ([Baindara et al., 2016]). Actively growing bacterial culture (0.2–0.3 OD at 600 nm) was centrifuged (10,000 rpm for 15 min at 4°C) and washed thrice with sterile PBS buffer. […] Upon incubation for different time intervals, cells were removed from reaction mixture by centrifugation and washed with PBS buffer. Bacterial culture without AMP treatment was used as negative control. Samples were withdrawn at the end of different treatment time points starting from 0 to 8 h, bacterial cells were pelleted, serially diluted, and cell suspensions were plated on nutrient agar plates. For each treatment, negative controls were also processed under identical conditions and plated on NA. CFU at different time intervals were recorded after overnight incubation at 37°C.

[9] = tested on: B. coagulans MTCC 492; assay: MIC, microtiter plate dilution assay; format: cell-based; details: 5 × 10^5 CFU/ml, 37°C, OD600 after 24 h, triplicate
Description: as §2

[10] = tested on: B. cereus MTCC 430; assay: MIC, microtiter plate dilution assay; format: cell-based; details: 5 × 10^5 CFU/ml, 37°C, OD600 after 24 h, triplicate
Description: as §2

Glu^1-Leu/Ile^2-Leu^3-Val^4-Asp^5-Leu^6-Leu/Ile^7 and a β-OH hexadecane fatty acid chain (lariat or depsi) [Lipopeptide A52, cyclic surfactin-like lipopeptide, 7 amino acids and C16 β-hydroxy fatty acid, 1061.9 Da, from B. subtilis strain A52]
antimicrobial activity in in-gel assay [1]: No antimicrobial activity was detected
MIC value, C. albicans MTCC 1637 [2]: 28 µg/mL
MIC value, C. albicans MTCC 183 [3]: 12 µg/mL
MIC value, C. albicans MTCC 227 [4]: 24 µg/mL
MIC value, C. albicans 400054 [5]: 16 µg/mL
MIC value, A. brassicicola MTCC 2102 [6]: 25 µg/mL
MIC value, B. subtilis MTCC 121 [7]: 2 µg/mL
time of treatment to complete killing / complete reduction of bacterial load [8]: ≤ 7 h
MIC value, B. coagulans MTCC 492 [9]: 2 µg/mL
MIC value, B. cereus MTCC 430 [10]: 2 µg/mL

Reference: paper PMC7300217, “Surfactin Like Broad Spectrum Antimicrobial Lipopeptide Co-produced With Sublancin From Bacillus subtilis Strain A52: Dual Reservoir of Bioactives” (Frontiers in Microbiology, 2020)
